Data published in PMC11565046, “Rational design of 2H-chromene-based antiphytovirals that inhibit virion assembly by outcompeting virus capsid-RNA interactions” (iScience, 2024).
Where two headings read alike, the source gives them in different places.

Key:
PVY CP^S125A = molecular target: T1, PVY CP^S125A (Potato virus Y, UniProt Q02963, S2919A); experiment: MST assay for affinity with mutant PVY CP^S125A; details: 25.0°C, read-out: Kd for binding to PVY CP^S125A
T1 construct: 6xHis (N, cleaved yes); S-tag (N, cleaved yes); thioredoxin (Trx, from pET-32a); made in house; host or cells: E. coli BL21 (DE3)
T1 sequence (Q02963 2795-3061 S2919A): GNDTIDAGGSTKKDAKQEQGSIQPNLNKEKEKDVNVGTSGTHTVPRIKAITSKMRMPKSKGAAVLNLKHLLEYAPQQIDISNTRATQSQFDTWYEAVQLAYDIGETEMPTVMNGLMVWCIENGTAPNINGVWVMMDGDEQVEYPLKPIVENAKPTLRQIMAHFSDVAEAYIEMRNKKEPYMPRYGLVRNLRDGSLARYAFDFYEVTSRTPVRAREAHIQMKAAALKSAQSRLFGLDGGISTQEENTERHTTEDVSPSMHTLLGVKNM

PVY [1] = experiment: Inactivating activity against PVY, half-leaf method on Chenopodium amaranticolor; assay type: in vivo, potato virus Y; details: for EC50: Potato virus Y, in Chenopodium amaranticolor
Experimental: (§1) According to previous reports,[46] PVY was infested in Nicotiana tabacum K326, and PVY was harvested and purified after showing severe infection symptoms on the leaves. The literature-guided protocol was followed to assess the curative, prophylactic, and […] potential of the target compounds under investigation.[15]
Target compound solution (1,000 μg/mL) and 2 × virus solution were combined in equal quantities and incubated for 30 min. Evenly distribute emery onto the leaf blades, and apply the mixture of virus and compound solution onto the right side of C. amaranticolor leaf blades. Following this, an identical quantity of a 1× virus solution was applied to the untreated side of the leaf. Following a duration of 1.5 h, the emery residue present on the leaf surface was removed using a rinsing process utilizing water. The plants were incubated within a controlled greenhouse environment, maintaining a consistent temperature of 25°C. After 5−7 days, they proceeded to statistics the number of necrotic spots on the leaves. For each chemical, triplicate experiments were undertaken, and the average percentage of inhibition was subsequently determined.

PVY CP^wt = PVY CP^wt (Potato virus Y, UniProt A0A650FPI8); experiment: MST assay for affinity with PVY CP^wt; assay type: binding
Source text: Microscale thermophoresis (MST) serves as a potent technique for quantifying the strength of interactions occurring between small molecules and their respective ligands.[19]^,[20] The binding strength between specific target drugs and PVY CP^wt was investigated in vitro using MST, as depicted in Figures 5G and S3. This experimental approach aimed to acquire insights into how target compounds exert their influences against PVY. […] Similarly, the affinity of target compounds for interacting with PVY CP^S125A was tested.
The PVY CP^wt gene, the wild-type variant of the Potato Virus Y coat protein, was cloned into the pET-32a (+) prokaryotic expression vector. This recombinant vector was then thermally transformed into BL21 (DE3) bacterial host cells for subsequent protein expression. The strains above were cultivated on a liquid Luria-Bertani medium (180 rpm, 37°C). To initiate the expression of PVY CP, isopropyl β-D-1-thiogalactopyranoside (IPTG) was added to the culture medium at a concentration of […] when the optical density at 600 nm (OD600) reached a range between 0.6 and 0.8. This step triggered the production of the PVY CP protein. The induction process was maintained for 10 h (180 rpm, 16°C). The 6 × -His-S-tagged PVY CP^wt were purified using nickel-nitriloacetic acid by high-performance column affinity chromatography. Subsequently, enterokinase was employed to digest the proteins, and the desired target proteins were isolated using His-tag purification resin. Ultimately, the proteins were identified through the employment of a 12% sodium dodecyl sulfate-polyacrylamide gel electrophoresis method. The pET-32a (+) plasmid containing the PVY CP^wt gene was used as a template. […] The mutant protein was purified using the method for the purification of PVY CP^wt, which was PVY CP^S125A.
The proteins' binding affinity with target chemicals was evaluated using a Monolith NT.115 instrument (Nano Temper, Munich, Germany), utilizing established methods described in literature.[35]^,[48] A concentration of 2.0 mM was selected for the chemicals, and the proteins were tagged with the Monolith TM RED-NHS second-generation labeling kit. The MST assay analyzed the fluorescence intensity of the labeled proteins, focusing on a range from 400 to 1200 to investigate their interactions. The scanning method was conducted using an “LED power” setting of 40% and a temperature that was maintained at 25.0°C.

PVY [2] = experiment: Protective activity against PVY, half-leaf method on Chenopodium amaranticolor; assay type: in vivo; details: Potato virus Y, in Chenopodium amaranticolor; 500 μg/mL; Chenopodium amaranticolor leaves; average of three replicates
Experimental: as §1
A 500 μg/mL solution of the targeted compound was delicately applied to one side of C. amaranticolor leaves, while the other side was treated with a 1% Tween 80 aqueous solution. The plants were positioned in a greenhouse set at 25°C. Following a 24 h period, the entire leaf surface was inoculated with PVY by uniformly distributing 200–300 mesh emery. After 1.5 h, the emery was washed off with water, and the plants were returned to the greenhouse. After 5–7 days, the number of necrotic spots was tallied, with the assessment based on the greenhouse population. Each compound was tested in triplicate, and the average inhibition rate was subsequently calculated.

PVY [3] = experiment: Curative activity against PVY, half-leaf method on Chenopodium amaranticolor; assay type: in vivo; details: Potato virus Y, in Chenopodium amaranticolor; 500 μg/mL; Chenopodium amaranticolor leaves; average of three replicates
Source text: as §1
To assess the curative effectiveness against PVY, a uniform layer of 200–300 mesh emery was applied to the leaves of C. amaranticolor, followed by rubbing with a virus solution. For 1.5 h, then the emery was washed off with water. After the leaves naturally dried, a 500 μg/mL solution of the test compound was carefully applied to one side of the leaf, while the opposite side received a 1% Tween 80 solution as a control. The plants were subsequently incubated in a greenhouse maintained at 25°C. After 5−7 days, the presence of necrotic spots on the leaves was recorded, with each compound tested on three replicate plants. The average inhibition rate was determined by analyzing the data from these replications.

PVY-GFP = experiment: Systemic infection of PVY-GFP in Nicotiana benthamiana (UV fluorescence, RT-qPCR); assay type: in vivo, potato virus Y; details: 500 μg/mL spray, 7 dpai; for Green fluorescence under UV light: N. benthamiana, versus DMSO control; for PVY RNA accumulation level (control normalized as 100%): systemic leaves of N. benthamiana, RT-qPCR
Source text: To evaluate the effect of C50 on PVY infection, we infiltrated the Nicotiana benthamiana plants with Agrobacterium carrying the PVY infectious clone pCamPVY-GFP. […] The RT-qPCR results for GFP were consistent with that of PVY RNA (Figure 3D).
The Nicotiana benthamiana plants were subjected to infestation by Agrobacterium tumefaciens, which carried either pCamPVY-GFP or an empty vector (mock). […] At 7 dpai, the leaves of N. benthamiana were looked at for the GFP using a LUYOR UV light (Shanghai, China), and captured in photographs. The foliage was gathered, rapidly frozen with liquid nitrogen, and subsequently preserved in a refrigerator set at a temperature of −80°C.
Leaf blades of Nicotiana benthamiana were pulverized into fine powder with the aid of liquid nitrogen, followed by the extraction of total RNA from the leaf tissue utilizing Trizol reagent (Invitrogen, California, USA). Subsequently, cDNA synthesis was conducted through reverse transcription with primers and a reverse transcription kit (Vazyme, Nanjing, China). Any potential DNA contamination was effectively removed using a gDNA wipe enzyme (Vazyme, Nanjing, China) as per the manufacturer’s guidelines. RT-qPCR analysis was carried out employing TB Green (TaKaRa, Beijing, China). Detailed information regarding the primers utilized in this investigation can be found in Table S2.

[4] = Chenopodium amaranticolor leaves, read-out: EC50 for inactivating activity
[5] = inactivating activity, Table S1, read-out: Experimental pEC50 (converted)

| EC50 (PVY [1]; [4]) [µg/mL] | EC50 (PVY [1]; [5]) [µM] | melting point [°C] | Compound | Kd (PVY CP^S125A) [µM] | Kd (PVY CP^wt) [µM] | inhibition at 500 µg/mL (PVY [2]) [%] | inhibition at 500 µg/mL (PVY [3]) [%] | Green fluorescence under UV light (PVY-GFP) | PVY RNA accumulation level (control normalized as 100%) (PVY-GFP) [%] | EC50 for inactivating activity (PVY [1]; Chenopodium amaranticolor leaves) [µg/mL] | EC50 (PVY [1]; read-out: EC50 for inactivating activity, Chenopodium amaranticolor leaves) [µg/mL] |
| --- | --- | --- | --- | --- | --- | --- | --- | --- | --- | --- | --- |
| 90.3 ± 7.1 | 202 | 152 to 154 | Cc1cccc(S(=O)(=O)Nc2ccc(/N=C/c3ccc4c(c3O)C=CC(C)(C)O4)cc2)c1 [Compound C27] |  |  | 60 to 70 | 60 to 70 |  |  |  |  |
| 503 ± 12.8 | 1120 | 143 to 145 | CC1(C)C=Cc2c(ccc(/C=N/c3ccc(NS(=O)(=O)Cc4ccccc4)cc3)c2O)O1 [Compound C28] |  |  | 60 to 70 | 60 to 70 |  |  |  |  |
| 682 ± 10 | 1650 | 132 to 134 | CCCCS(=O)(=O)Nc1ccc(/N=C/c2ccc3c(c2O)C=CC(C)(C)O3)cc1 [Compound C29] |  |  | 60 to 70 | 60 to 70 |  |  |  |  |
| 88.3 ± 4 | 188 | 191 to 193 | CC1(C)C=Cc2c(ccc(/C=N/c3ccc(NS(=O)(=O)c4c(F)cccc4F)cc3)c2O)O1 [Compound C32] |  |  | 60 to 70 | 60 to 70 |  |  |  |  |
| 147 ± 8.3 | 288 | 158 to 160 | CC1(C)C=Cc2c(ccc(/C=N/c3ccc(NS(=O)(=O)c4ccc(Br)cc4)cc3)c2O)O1 [Compound C34] |  |  | 60 to 70 | 60 to 70 |  |  |  |  |
| 557 ± 14.3 | 1190 | 189 to 191 | CC1(C)C=Cc2c(ccc(/C=N/c3ccc(NS(=O)(=O)c4cccc(Cl)c4)cc3)c2O)O1 [Compound C36] |  |  | 60 to 70 | 60 to 70 |  |  |  |  |
| 306 ± 11 | 631 | 193 to 195 | CC1(C)C=Cc2c(ccc(/C=N/c3ccc(NS(=O)(=O)c4cccc(Cl)c4F)cc3)c2O)O1 [Compound C37] |  |  | 60 to 70 | 60 to 70 |  |  |  |  |
| 410 ± 9.7 | 851 | 193 to 195 | Cc1c(Cl)cccc1S(=O)(=O)Nc1ccc(/N=C/c2ccc3c(c2O)C=CC(C)(C)O3)cc1 [Compound C38] |  |  | 60 to 70 | 60 to 70 |  |  |  |  |
|  |  |  | CNCC(=O)N[C@@H](CO)C(=O)N[C@H]1[C@H](O)[C@@H](O)[C@H](n2ccc(N)nc2=O)O[C@@H]1C(N)=O [NNM, Ningnanmycin, reference compound] |  | 8.6 |  |  | noteworthy decrease in green fluorescence | 51.8 | 75.7 ± 4.0 | 73.7 |

| Compound | EC50 (PVY [1]; [4]) [µg/mL] | EC50 (PVY [1]; [5]) [µM] | melting point [°C] | Kd (PVY CP^S125A) [µM] | Kd (PVY CP^wt) [µM] | inhibition at 500 µg/mL (PVY [2]) [%] | inhibition at 500 µg/mL (PVY [3]) [%] | Green fluorescence under UV light (PVY-GFP) | PVY RNA accumulation level (control normalized as 100%) (PVY-GFP) [%] | EC50 for inactivating activity (PVY [1]; Chenopodium amaranticolor leaves) [µg/mL] | EC50 (PVY [1]; read-out: EC50 for inactivating activity, Chenopodium amaranticolor leaves) [µg/mL] |
| --- | --- | --- | --- | --- | --- | --- | --- | --- | --- | --- | --- |
| CC1(C)C=Cc2c(ccc(/C=N/c3ccc(NS(=O)(=O)c4ccc(Cl)cc4)cc3)c2O)O1 [Compound C6, (E)-4-chloro-N-(4-(((5-hydroxy-2,2-dimethyl-2H-chromen-6-yl)methylene)amino)phenyl) benzenesulfonamide] | 56.7 ± 4.2 | 121 | 139 to 141 | 312 ± 40.3 | 4.4 |  |  |  |  |  |  |
| CC(C)=CCCC1(C)C=Cc2c(ccc(/C=N/c3ccc(NS(=O)(=O)c4ccc(C)cc4)cc3)c2O)O1 (stereo not drawn) [Compound C42] | 503 ± 17 | 975 | 95 to 97 |  | 497 |  |  |  |  |  |  |
| Cc1ccc(S(=O)(=O)Nc2ccc(/N=C/c3ccc4c(c3O)C=CC(C)(C)O4)cc2)cc1 [Compound C50] | 53.3 ± 4.3 | 119 | 127 to 129 | 125 | 1.6 | 60 to 70 | 60 to 70 | noteworthy decrease in green fluorescence | 18.9 |  |  |
